In data set [1] the test system is guinea-pig ileum (histamine contractions). The experiment in a line: Antispasmodic activity in vitro, contractions caused by histamine. The conditions noted are these: added 15 minutes before spasm-producing agent. As to the method: (§1) (4) The antispasmodic activity was measured in vitro, on guinea-pig ileum, the contractions of which were caused by histammne (Hist.), acetylcholine (Achol) or barium chloride (BaCl2). The tested products were added to perfusion bath 15 minutes before the spasm-producing agents.
(§2) The dose is given in micograms (μg) per ml of bath causing complete spasm inhibition.

Data set [2] concerns unanaesthetized, hypertension-suffering rat. Description: Antihypertensive activity (systolic arterial pressure), oral. In kind it is in vivo. The conditions noted are these: 60 mg/kg, hypertensive rat, 3 hours. In short, it runs like this: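 Conscious hypertensive rats given compound orally at 60 mg/kg; systolic arterial pressure measured every 30 min for 2 h pre-dose and 3 h post-dose. Scored O (no fall), + (<10 mm Hg), ++ (10–20 mm Hg), +++ (>20 mm Hg).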

The nature of data set [3]: Acute toxicity, oral, LD50 (Litchfield and Wilcoxon). The conditions noted are these: mouse, in vivo, fasted male mice, confidence limits p=95% in brackets. As to the method:
(1) The acute toxicity was determined on fasted male mice. The tested substances were orally administered and LD50 values (lethal dose for 50% of animals) were calculated according to the method of Litchfield and Wilcoxon (J. Pharmacol. exp. Ther. 96, 94-113, 1949). These LD50 values are given in mg/kg and also, when possible, with their confidence limits for p=95%.

Data set [4] relates to guinea-pig ileum (barium chloride contractions). The experiment in a line: Antispasmodic activity in vitro, contractions caused by barium chloride. The conditions noted are these: added 15 minutes before spasm-producing agent. As to the method: as §1, §2
Another data set deals with femoral artery. The experiment in a line: Vasodilator activity, femoral artery (technique of perfused paw). It counts as in vivo. Further details: key: O: no action; +: slight activity; ++: effect equal to half the effect of papaverine; +++: effect equal to that of papaverine; ++++: effect higher than that of papaverine. The conditions noted are these: intra-arterial, 30 mg/kg, anaesthetized dog, vs papaverine at same dose. How it is done: (3) The vasodilator activity was measured at the level of femoral artery on anaesthetized dog (technique of perfused paw). The tested substances were given intra-arterially at the rate of 30 mg/kg. Results are expressed with respect to papaverine tested at the same dose.
++: effect equal to half the effect of papaverine.
+++: effect equal to that of papaverine.
++++: effect higher than that of papaverine.

Data set [5] deals with guinea-pig ileum (acetylcholine contractions). The experiment in a line: Antispasmodic activity in vitro, contractions caused by acetylcholine. The conditions noted are these: added 15 minutes before spasm-producing agent. How it is done:
as §1, §2

For the compound `CC(NCCOc1ccccc1)C(O)c1ccc2c(c1)CCCS2` (stereo not drawn) [No 20], the “ANTISPASMODIC ACTIVITY HIST. (dose causing complete spasm inhibition)” value in data set [1] was 8.3 μg per ml. For the same compound, in data set [2], the “ANTIHYPERTENSIVE ACTIVITY” value is “+++ (reduction higher than 20 mm Hg)”. Moreover, the LD50 in data set [3] was more than 4000 mg/kg. In addition, the “ANTISPASMODIC ACTIVITY BaCl2 (dose causing complete spasm inhibition)” value in data set [4] is 8.3 μg per ml. For the same compound, the “VASODILATOR ACTIVITY” value with femoral artery was “+++”. Further, the “ANTISPASMODIC ACTIVITY ACHOL (dose causing complete spasm inhibition)” value in data set [5] was 3.3 μg per ml.

Regarding `CC(NCCCCc1ccc(Cl)cc1)C(O)c1ccc2c(c1)CCCS2` (stereo not drawn) [No 23], in data set [1], the “ANTISPASMODIC ACTIVITY HIST. (dose causing complete spasm inhibition)” value was found to be 0.8 μg per ml. Besides, the “ANTIHYPERTENSIVE ACTIVITY” value in data set [2] is “+++ (reduction higher than 20 mm Hg)”. The same compound yielded an LD50 in data set [3] of approximately 2100 mg/kg. The “ANTISPASMODIC ACTIVITY BaCl2 (dose causing complete spasm inhibition)” value in data set [4] amounted to 0.8 μg per ml. Moreover, the “VASODILATOR ACTIVITY” value in the data set on femoral artery is reported as “++++”. In data set [5], the “ANTISPASMODIC ACTIVITY ACHOL (dose causing complete spasm inhibition)” value amounted to 1.7 μg per ml.

(Values after patent US4638070A, “Heterocyclic amino-alcohol derivatives” (Continental Pharma, priority 1980, dated 1987).)
